Assay results as given in patent publication US20140294729A1, “METHODS FOR IDENTIFICATION AND USE OF AGENTS TARGETING CANCER STEM CELLS” (Whitehead Institute for Biomedical Research, priority 2008, published 2014).
Entries after “also recorded” stand apart in the source; their conditions may differ.

Tests used:
HMLER cells [1] = assay: FACS of the CD44+/CD24- CSC population in treated HMLER cells; type: cell-based, human
Description: (§1) FIGS. 6A and 6B depict effects of salinomycin on the CSC population in HMLER cell line. (FIG. 6A) HMLER cells were treated with vehicle control (dmso), salinomycin or paclitaxel at the indicated concentrations for 15 days. FACS analysis were performed at the end of treatment to gauge the CD44+/CD24− CSC population (right panels). Note that salinomycin decreases the CD44+/CD24− population from a basal of 4.9% to 0.2%. Treated cultures were also subjected to the mammosphere formation assay (left panels). Number of mammopsheres formed per 1000 cells from each culture are indicated below the representative photographs of assay wells. (FIG. 6B) Growth rates of HMLER cultures after treatment with vehicle control (dmso), salinomycin or paclitaxel at the indicated concentrations in (A) for 15 days.
We then turned to the critical question of whether the compounds had the general ability to inhibit CSCs in breast cancer cell lines. […] We next compared the effects of salinomycin, control vehicle DMSO and paclitaxel on HMLER cells. […] The CD44+/CD24− fraction was thus 360-fold lower following treatment with salinomycin than with paclitaxel (FIG. 6A). Proliferation of the bulk population was not inhibited following treatment with salinomycin relative to either vehicle- or paclitaxel-treatment (FIG. 6B).
(§2) The anti-CD44 (clone G44-26) antibody conjugated to APC and the anti-CD24 antibody (clone ML5) conjugated to PE used for FACS analysis were obtained from BD Bioscience and used according to the manufacturer's instructions. Propidium Iodide (5 ug/ml) was included in the staining protocol to distinguish live cells.

SUM159 cells = assay: FACS of the CD44hi/CD24lo fraction in treated SUM159 cells; type: cell-based; conditions: for percent of cells in the CD44hi/CD2410 fraction relative to DMSO controls: FIGS. 5C and 5D
Description: FIG. 5A depicts flow cytometry analysis of Sum159, MDA-MB-231 and T47D cell lines with respect to cell surface expression of CD44 and CD24. Note that while the majority of cells in Sum159 and MDA-MB-231 line contain large amounts of CSCs, T47D cells have very few such cells. FIG. 5B depicts dose response curves of Sum159, MDA-MB-231 and T47D cell treated with Salinomycin.
To further characterize the effects of compound treatment on cancer cells, we conducted FACS analyses on SUM159 cells treated with salinomycin, abamectin, taxol, or DMSO.
as §2

HMLER cells [2] = assay: Mammosphere formation assay of treated HMLER cells; type: cell-based, human
Description: as §1
We examined the ability of breast cancer cells to form mammospheres following treatment with salinomycin.
(§3) Mammosphere culture was performed as described (Dontu et al., 2003), except that the culture medium contained 0.9% methyl cellulose (Stem cell technologies) to prevent cell aggregation. […] were plated per well in 96-well plates. The mammospheres were cultured for 7-10 days and then photographed and counted.

[3] = tested on: SUM159 breast cancer cells; assay: Mammosphere formation assay with SUM159 breast cancer cells; type: cell-based
Description: (§4) To directly evaluate the effect of salinomycin on cancer stem cell populations, we functionally assayed for cancer stem cell activity in salinomycin, taxol, or DMSO-treated cultures.
as §3

MCF7Ras cells = assay: Mammosphere-forming potential of treated MCF7Ras cells; type: cell-based; conditions: FIG. 14
Description: (§5) FIG. 14A depicts the mammosphere forming potential of parental HMLER cells treated with either DMSO, paclitaxel (taxol) or salinomycin at the specified doses. FIG. 14B depicts MCF7Ras or 4T1 cells that were treated with DMSO, paclitaxel or salinomycin. Mammosphere-forming potential is shown below.
as §3
(§6) The mammosphere forming potential of parental HMLER cells treated with either DMSO, paclitaxel (taxol) or salinomycin was also examined at various doses. Salinomycin, but not paclitaxel inhibited mammosphere formation in MCF7Ras or 4T1 cells. (FIG. 14.) The effects of salinomycin, paclitaxel or vehicle control treatments on in vivo tumor formation by SUM159 breast cancer cells injected in mice was determined. […] (FIG. 15A.) The mammosphere-forming potential of cancer cells obtained from SUM159 tumors from salinomycin, paclitaxel or DMSO-treated mice was also determined (FIG. 15B.)

4T1 cells = assay: Mammosphere-forming potential of treated 4T1 cells; type: cell-based; conditions: FIG. 14
Description: as §5, §3, §6

[4] = tested on: CSCs in breast cancer cell populations; assay: In vivo tumor-seeding ability after in vitro drug treatment (serial dilution, subcutaneous injection); parameters: species or system NOD/SCID mice
Description: Finally, we also directly assessed the functional presence of CSCs by assaying in vivo tumor-seeding ability following drug treatment. Cells were treated in vitro for 5 days and then injected subcutaneously into NOD/SCID mice. […] The proportion of functional CSCs was thus reduced by 1000-fold following salinomycin treatment compared to paclitaxel treatment.
as §4
We have established several downstream assays for the follow-up evaluation of screen hits with respect to their effects on cancer stem cells: (1) Treat cells in culture for a period of time with screen hits (e.g., compounds, compositions, antibodies, shRNAs, etc.), including the necessary controls, and then allow the cells to recover for a period (e.g., up to 12 hours, up to 24 hours, up to 48 hours, up to 72 hours etc.), and then perform FACS with markers that identify populations enriched for cancer stem cells (for example, but not limited to, CD44+/CD24− in the case of breast cancer). (2) Treat cells in culture for a period of time with screen hits, allow them to recover for a prescribed period of time, and then perform colony formation assays in suspension in the absence of chemical compound (for breast cancer cells, these assays are referred to as mammosphere formation assays). (3) Treat cells in culture for a period of time with screen hits, allow them to recover for a prescribed period of time, and then inject cells at various cell numbers subcutaneously into immunocompromised animals and evaluate the frequency of tumor formation. The number of injected cells could include 10̂6, 10̂5, 10̂4, 10̂3, and 10̂2 cells. Using follow-up assays, such as those disclosed herein, one can evaluate whether or not a screen hit (or any drug with potential CSC-directed activity) is a bonafide inhibitor of cancer stem cells.

[5] = tested on: SUM159 breast cancer cells; assay: In vivo tumor formation by SUM159 breast cancer cells in treated mice; conditions: FIG. 15A
Description: FIG. 15A depicts in vivo tumor formation by SUM159 breast cancer cells in mice that were treated with salinomycin, paclitaxel or vehicle. […] FIG. 15B depicts the mammosphere-forming potential of cancer cells obtained from SUM159 tumors from salinomycin, paclitaxel or DMSO-treated mice.
as §6

Row | Structure (SMILES) | increase of the CSC-fraction (CD44+/CD24−) (HMLER cells [1]; FIG. 6A) | percent of cells in the CD44hi/CD2410 fraction relative to DMSO controls (SUM159 cells) | mammosphere size (HMLER cells [2]) | effect on the number of mammospheres (HMLER cells [2]; FIG. 6A) | number of cells capable of forming colonies in suspension culture relative to DMSO [3] | mammosphere formation (MCF7Ras cells) | mammosphere formation (4T1 cells) | increase in tumor-seeding ability relative to controls ([4]; cells treated in vitro for 5 days, data not shown) | CSC functional activity / CSC number in tumor-formation dilution series relative to DMSO-treated controls ([4]; mouse, in vivo) | CSC functional activity / CSC number in tumor-formation dilution series relative to DMSO-treated controls ([4]; mouse, in vivo, listed as taxol) | tumor volume / tumor growth compared with vehicle control [5] | CD44+/CD24− population after treatment (basal 4.9%) (HMLER cells [1]; 15 days) | CD44+/CD24− fraction lower following salinomycin than with paclitaxel (HMLER cells [1]; FIG. 6A) | decrease of the proportion of CD44+/CD24− cells relative to vehicle-treated controls (HMLER cells [1]; FIG. 6A) | increase in the CSC-depleted fraction (SUM159 cells) | percent of cells in the CD44hi/CD2410 fraction relative to DMSO controls (SUM159 cells; listed as Salinomycin) | decrease in the number of mammospheres relative to controls (HMLER cells [2]; FIG. 6A) | decrease in tumor-seeding ability (CSCs) relative to vehicle/control treatment ([4]; cells treated in vitro for 5 days, injected subcutaneously, data not shown) | reduction of functional CSCs following salinomycin compared to paclitaxel treatment ([4]; mouse, in vivo)
1 | CC(=O)O[C@H]1C(=O)[C@@]2(C)[C@H]([C@H](OC(=O)c3ccccc3)[C@]3(O)C[C@H](OC(=O)[C@H](O)[C@@H](NC(=O)c4ccccc4)c4ccccc4)C(C)=C1C3(C)C)[C@]1(OC(C)=O)CO[C@@H]1C[C@@H]2O [paclitaxel] | 18 fold | did not significantly affect | significant increase | neither paclitaxel nor vehicle treatment affected the number of mammospheres | increase | not | not | ~10 fold | induced an increase in CSCs | opposite effect | reduced tumor volume | – | – | – | – | – | – | – | –
2 | CC[C@@H](C(=O)[C@@H](C)[C@@H](O)[C@H](C)[C@@H]1O[C@@H]([C@@H](CC)C(=O)O)CC[C@@H]1C)[C@H]1O[C@]2(C=C[C@@H](O)[C@]3(CC[C@@](C)([C@H]4CC[C@](O)(CC)[C@H](C)O4)O3)O2)[C@H](C)C[C@@H]1C [salinomycin] | – | significantly reduced | – | – | significantly reduced | inhibited | inhibited | – | significantly reduced | – | reduced tumor volume; also recorded: inhibition of tumor growth | 0.2% | 360 fold | 20 fold | ~3 fold | decrease in the CSC population | ~10 fold | 100 fold | 1000 fold
